The numbers were not newly measured in US5843713A, “Peptide sequence that forms mucin sugar chain and technique for modifying protein to be linked with mucin sugar chain” (Kirin Beer Kabushiki Kaisha, priority 1994, dated 1998), which cites them from elsewhere.

Series [1] has as its system crude enzyme solution of O-GalNAc T extracted from human breast cancer cells MCF7. The note with it: literature, J. Biol. Chem. Vol.269 (1994).
The subject of series [2] is O-GalNAc T derived from swine submaxillary gland. Conditions: literature, Biochemistry Vol.18 (1979).

Take “PDTRPAPGS [literature peptide analogous to repetitive region of human mucin MUC1]”: in series [1], the “transfer of GalNAc” value is on record as “no transfer of GalNAc is observed”.

“PDTRAPPGS [literature peptide analogous to repetitive region of human mucin MUC1]”: in series [1], the “transfer of GalNAc” value was “no transfer of GalNAc is observed”.

In the case of “TPPP: literature peptide derived from bovine myelin basic protein (RTPPP)”, the GalNAc acceptor activity entry in series [2] is given as “highly active GalNAc acceptors”.

In the case of “PRTPPP: literature peptide derived from bovine myelin basic protein”, the GalNAc acceptor activity result in series [2] is listed as “highly active GalNAc acceptors”.

On to “PDTRPPAGS [literature peptide analogous to repetitive region of human mucin MUC1]”, for which, in series [1], the “transfer of GalNAc” value is “no transfer of GalNAc is observed”.

With “TPRTPPP [literature peptide derived from bovine myelin basic protein]”, the GalNAc acceptor activity entry in series [2] is “highly active GalNAc acceptors”.
